These results are taken from US5851556A, “Use of a salt of an alkaline-earth metal as TNF-A or substance P inhibitor in a topical composition and composition obtained” (Societe L'Oreal S.A., priority 1995, dated 1998).

In one assay the test system is substance P. Kind of assay: release of substance P caused by antidromic stimulation of the sciatic nerve, visualized with Evans blue. The assay is classed as in vivo. Conditions: for % inhibition relative to the control / μg/ml of Evans blue: 1 μmol; for μg/ml of Evans blue: control vehicle 8.19 ± 0.83. From the text: The test consisted in determining the activity of the various compounds on the release of substance P, caused by antidromic stimulation of the sciatic nerve. This release is visualized by staining with a dye (Evans blue). The greater the quantity of substance P released, the more intense the colour. In other words, the greater the inhibitory effect produced on this release by the substance P antagonist, the less intense the colour.

For a further assay, the system named is TNF-alpha. In words: TNF-alpha secretion by human monocytes (U937 line) stimulated by phorbol ester (PMA). The assay is classed as cell-based. The note with it: U937, PMA 10 nM, 48 hours; for % inhibition of TNF-alpha secretion induced by PMA: mean of 3 measurements. The protocol: This test is performed on human monocytes (U937 line) stimulated by a phorbol ester (PMA) according to the method described by Schindler et al (Correlations and interactions in the production of interleukin-6 (IL-6), IL-1, and Tumor Necrosis Factor (TNF) in human blood mononuclear cells: IL-6 suppresses IL-1 and TNF. Blood 75: 40-47 (1990)).
The phorbol ester (PMA) naturally stimulates the synthesis and/or the secretion of TNF-alpha by human monocytes in culture.
The activity of the molecules is evaluated according to their ability to reduce or even eliminate this TNF-alpha secretion.
The cells (monocytes) are incubated in the presence of PMA at the concentration of 10 nM for 48 hours at 37° C. The quantities of TNF-alpha secreted are quantified by immuno-enzymatic assay ([…]) with the aid of commercially available kits.
Each molecule is tested at 3 different concentrations (10^-5, 10^-4 and 10^-3 M) and during each experiment, a reference molecule (dexamethasone) is studied at 7 concentrations as internal standard.
The results are expressed as percentage inhibition relative to the positive control (without test molecule) after subtracting the background noise. A recapitulative Table 3 groups together the mean inhibitory effects obtained with the compounds. (The results expressed in % inhibition; they are the mean of 3 measurements).

Regarding `O=[N+]([O-])[O-].O=[N+]([O-])[O-].[Ca+2]` [Ca(NO3)2, calcium nitrate], the “inhibitory activity on the release of substance P” value in the assay on substance P (Table 1, salts at 1 μmol) is “does not have any activity at all”; with substance P (Table 2, strontium salts 1 μmol, calcium salt 10 μmol), “has no activity at all”.
For the molecule `[Ca+2].[Cl-].[Cl-]` [CaCl2,7H2 O, calcium chloride], the entries for the “% inhibition of TNF-alpha secretion induced by PMA” value (“% inhibition … by PMA” below) in the assay on TNF-alpha (10^-3 M), in the assay on TNF-alpha (10^-4 M) and with TNF-alpha (10^-5 M) were 67%, 22% and 19%, respectively.
`[Cl-].[Cl-].[Mg+2]` [MgCl2, magnesium chloride]: the “% inhibition … by PMA” value was 70% with TNF-alpha (10^-3 M) and 12% in the assay with TNF-alpha (10^-4 M).
For `O=[N+]([O-])[O-].O=[N+]([O-])[O-].[Sr+2]` [Sr(NO3)2, strontium nitrate], the “% inhibition … by PMA” value in the assay on TNF-alpha (10^-3 M) worked out at 75%; with TNF-alpha (10^-4 M), 28%. Besides, the “% inhibition relative to the control” value in the assay with substance P (Table 1) worked out at 41%; in the assay with substance P (Table 2) it was 71%. Besides, the “μg/ml of Evans blue” value in the assay with substance P (Table 1) is 4.84 ± 0.6 µg/mL.
Consider `[Cl-].[Cl-].[Sr+2]` [SrCl2 7H2 O, strontium chloride], for which the “% inhibition … by PMA” value in the assay on TNF-alpha (10^-3 M) is reported as 54%; in the assay with TNF-alpha (10^-5 M) it was 14%.
On to `[Cl-].[Cl-].[Sr+2]` [SrCl2, strontium chloride], for which the “% inhibition relative to the control” value is recorded as 37% in the assay on substance P (Table 1) and 57% in the assay with substance P (Table 2). The “μg/ml of Evans blue” value with substance P (Table 1) was 5.13 ± 0.9 µg/mL.
For orientation: IC50 means the concentration that gives 50% inhibition. For `C[C@@H]1C[C@H]2[C@@H]3CCC4=CC(=O)C=C[C@]4(C)[C@@]3(F)[C@@H](O)C[C@]2(C)[C@@]1(O)C(=O)CO` [dexamethasone, reference compound], in the assay on TNF-alpha (Homo sapiens, U-937, read-out: IC50 (50% reduction in the secretion, caused by PMA), reference molecule, 7 concentrations), the IC50 came out at 4 nM.
